From US20260226073A1 (AURIGENE ONCOLOGY LIMITED, priority 2023, published 2026) come the findings set out here.

Some results are limits rather than exact numbers.

This assay deals with T1, human recombinant CBL-b (human Biotin CBL-b recombinant protein a.a. 39-426) (Homo sapiens, UniProt Q13191).
T1 construct: human Biotin CBL-b recombinant protein a.a; 39-426; Biotin (biotinylated); made in house
T1 sequence (Q13191 39-426): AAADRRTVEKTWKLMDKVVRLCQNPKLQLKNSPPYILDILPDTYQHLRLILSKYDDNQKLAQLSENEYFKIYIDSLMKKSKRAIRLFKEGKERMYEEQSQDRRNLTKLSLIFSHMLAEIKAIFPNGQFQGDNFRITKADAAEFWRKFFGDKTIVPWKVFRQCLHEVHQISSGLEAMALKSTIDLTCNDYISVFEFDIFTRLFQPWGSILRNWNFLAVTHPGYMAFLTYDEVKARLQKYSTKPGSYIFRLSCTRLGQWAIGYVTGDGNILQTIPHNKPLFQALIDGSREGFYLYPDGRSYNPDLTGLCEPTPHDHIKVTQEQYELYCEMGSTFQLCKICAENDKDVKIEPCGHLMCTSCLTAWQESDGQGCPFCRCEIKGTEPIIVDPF
Put plainly: Biochemical assay for CBL-b inhibition (ligand displacement TR-FRET). It counts as binding. As to conditions: 50 nM CBL-b, 0.3 μM Bodipy FL-Probe, read-out: IC50 (CBL-b inhibition, group). The method, then:
The inhibitory activity of the test compounds was assessed by Ligand displacement TR-FRET assay. The human recombinant CBL-b (human Biotin CBL-b recombinant protein a.a. 39-426; synthesised in-house) was diluted in enzyme assay buffer (20 mM HEPES, 150 mM NaCl, 0.01% Triton X, 0.01% BSA, 0.5 mM TCEP) in a 10 μl volume and plated in 384-well plates (Cat #781075, Greiner) to a final concentration of 50 nM. The enzyme/compound mixture was incubated at RT for 60 min. The Bodipy FL-Probe described in WO 2020/210508 (synthesized in-house) diluted in enzyme assay buffer was added to the plate and incubated for 60 min RT, the final probe concentration was 0.3 μM. After 60 min incubation, 10 μl of detection mix (Terbium Streptavidin, (Cat #PV3576, Invitrogen) diluted in 1× Lance buffer) was added and incubated for 60 min at room temperature. Time-resolved fluorescence (excitation, 320 nm; emission donor, 615 nm; emission acceptor, 665 nm) was monitored by using 2030 multilabel reader Victor5 (PerkinElmer). The IC50 (concentration for half maximal inhibition) and % maximum inhibition of the compounds were estimated by fitting the dose response data to a sigmoidal curve fitting equation using Graph pad Prism software V. 8.
For `CC1CCC(C)N(Cc2cc(N3Cc4ccc(C5(Cc6nncn6C)COC5)cc4C3=O)nc(C(F)(F)F)c2)C1` (single isomer, unassigned) [Compound 140], the IC50 was in the range of 0.3 to 5 µM.
For the compound `Cc1cc(CN[C@H](CO)C(C)C)cc(N2Cc3ccc(-c4ccc(F)cc4-c4nncn4C)cc3C2=O)n1` [Compound 297], the IC50 was in the range of 0.08 to 0.3 µM.
To `Cc1cc(CNCC2(O)COC2)cc(N2Cc3ccc(-c4ccc(F)cc4-c4nncn4C)cc3C2=O)n1` [Compound 291] belongs 0.08 to 0.3 µM; to `Cc1cc(CO)cc(N2Cc3ccc(-c4ccc(F)cc4-c4nncn4C)cc3C2=O)n1` [Compound 136, 6-(4-Fluoro-2-(4-methyl-4H-1,2,4-triazol-3-yl)phenyl)-2-(4-(hydroxymethyl)-6-methylpyridin-2-yl)isoindolin-1-one], 0.3 to 5 µM.
On to `Cc1cc(CNCC2CC2)cc(N2Cc3ccc(-c4cc(F)c(F)cc4-c4nncn4C)cc3C2=O)n1` [Compound 267], for which the concentration for half-maximal inhibition (IC50) fell in the range of 0.08 to 0.3 µM.
Consider `Cc1cc(CNCC2(C)COC2)cc(N2Cc3ccc(-c4ccc(F)cc4-c4nncn4C)cc3C2=O)n1` [Compound 292], for which the IC50 is 0.08 to 0.3 µM.
To `Cc1cc(CNC(C2CC2)C(F)(F)F)cc(N2Cc3ccc(-c4ccc(F)cc4-c4nncn4C)cc3C2=O)n1` (centres unmarked) [Compound 324] belongs 0.3 to 5 µM; to `Cn1cnnc1CC1(c2ccc3c(c2)C(=O)N(c2cc(CN4CCC(O)CC4)cc(C(F)(F)F)n2)C3)COC1` [Compound 43, 2-(4-((4-Hydroxypiperidin-1-yl)methyl)-6-(trifluoromethyl)pyridin-2-yl)-6-(3-((4-methyl-4H-1,2,4-triazol-3-yl)methyl)oxetan-3-yl)isoindolin-1-one], 0.3 to 5 µM; to `Cn1cnnc1CC1(c2ccc3c(c2)C(=O)N(c2cc(CN4CCC5(CCCO5)CC4)cc(C(F)(F)F)n2)C3)COC1` [Compound 32, 2-(4-((1-Oxa-8-azaspiro[4.5]decan-8-yl)methyl)-6-(trifluoromethyl)pyridin-2-yl)-6-(3-((4-methyl-4H-1,2,4-triazol-3-yl)methyl)oxetan-3-yl)isoindolin-1-one], 0.3 to 5 µM.
`Cc1cc(CNC(C)(C)CCO)cc(N2Cc3ccc(-c4ccc(Cl)cc4-c4nncn4C)cc3C2=O)n1` [Compound 276]: the IC50 was 0.08 to 0.3 µM.
To `Cc1cn(Cc2cc(N3Cc4ccc(C5(Cc6nncn6C)COC5)cc4C3=O)nc(C(F)(F)F)c2)cn1` [Compound 70, 2-(4-((4-Methyl-1H-imidazol-1-yl)methyl)-6-(trifluoromethyl)pyridin-2-yl)-6-(3-((4-methyl-4H-1,2,4-triazol-3-yl)methyl)oxetan-3-yl)isoindolin-1-one] belongs 0.3 to 5 µM; to `CC1CCCN1Cc1cc(Cl)nc(N2Cc3ccc(C4(Cc5nncn5C)COC4)cc3C2=O)c1` (centres unmarked) [Compound 200], 0.3 to 5 µM.
To `Cn1cnnc1C[C@]1(c2ccc3c(c2)C(=O)N(c2cc(CNCC4CCC4)cc(Cl)n2)C3)C[C@@H](C#N)C1` (single isomer, unassigned) [Compound 245] belongs 0.08 to 0.3 µM; to `C[C@@H]1CN(Cc2cc(N3Cc4ccc(C5(Cc6nncn6C)COC5)cc4C3=O)nc(C(F)(F)F)c2)C[C@H](C)O1` [Compound 72, 2-(4-(((2R,6S)-2,6-Dimethylmorpholino)methyl)-6-(trifluoromethyl)pyridin-2-yl)-6-(3-((4-methyl-4H-1,2,4-triazol-3-yl)methyl)oxetan-3-yl)isoindolin-1-one], 0.3 to 5 µM; to `Cn1cc(CNCc2cc(Cl)nc(N3Cc4ccc(C5(Cc6nncn6C)COC5)cc4C3=O)c2)cn1` [Compound 211], 0.3 to 5 µM.
To `CCN1CCc2c(cc(N3Cc4ccc(C5(Cc6nncn6C)COC5)cc4C3=O)cc2C(F)(F)F)C1` [Compound 77, 2-(2-Ethyl-5-(trifluoromethyl)-1,2,3,4-tetrahydroisoquinolin-7-yl)-6-(3-((4-methyl-4H-1,2,4-triazol-3-yl)methyl)oxetan-3-yl)isoindolin-1-one] belongs 0.3 to 5 µM; to `C[C@@H]1CN(Cc2cc(N3Cc4ccc(C5(Cc6nncn6C)COC5)cc4C3=O)nc(C(F)(F)F)c2)CCN1C` [Compound 97, (R)-2-(4-((3,4-Dimethylpiperazin-1-yl)methyl)-6-(trifluoromethyl)pyridin-2-yl)-6-(3-((4-methyl-4H-1,2,4-triazol-3-yl)methyl)oxetan-3-yl)isoindolin-1-one], 0.3 to 5 µM.
In the case of `Cc1cc(C(C)c2cnn(C)c2)cc(N2Cc3ccc(-c4ccc(F)cc4-c4nncn4C)cc3C2=O)n1` (centres unmarked) [Compound 333, 6-(4-Fluoro-2-(4-methyl-4H-1,2,4-triazol-3-yl)phenyl)-2-(6-methyl-4-(1-(1-methyl-1H-pyrazol-4-yl)ethyl)pyridin-2-yl)isoindolin-1-one], the 50% inhibitory concentration (IC50) fell in the range of 0.3 to 5 µM.
In the case of `C[C@@H]1CN(Cc2cc(N3Cc4ccc(C5(Cc6nncn6C)COC5)cc4C3=O)nc(C(F)(F)F)c2)C[C@H](C)N1` [Compound 98, 2-(4-(((3R,5S)-3,5-Dimethylpiperazin-1-yl)methyl)-6-(trifluoro-methyl)pyridin-2-yl)-6-(3-((4-methyl-4H-1,2,4-triazol-3-yl)methyl)oxetan-3-yl)-isoindolin-1-one], the IC50 lay in the range of 0.3 to 5 µM.
The figure for `Cc1cc(CNS(C)(=O)=O)cc(N2Cc3ccc(-c4ccc(F)cc4-c4nncn4C)cc3C2=O)n1` [Compound 283] is 0.08 to 0.3 µM; for `Cn1cnnc1CC1(c2ccc3c(c2)C(=O)N(c2cc(CN4CCC5(CCCO5)C4)cc(C(F)(F)F)n2)C3)COC1` (centres unmarked) [Compound 50, 2-(4-((1-Oxa-7-azaspiro[4.4]nonan-7-yl)methyl)-6-(trifluoromethyl)pyridin-2-yl)-6-(3-((4-methyl-4H-1,2,4-triazol-3-yl)methyl)oxetan-3-yl)isoindolin-1-one] it is 0.3 to 5 µM.
To `C[C@H]1CCCN(Cc2cc(Cl)nc(N3Cc4ccc(-c5c(-c6nncn6C)cnn5C)cc4C3=O)c2)C1` [Compound 114, (S)-2-(6-Chloro-4-((3-methylpiperidin-1-yl)methyl)pyridin-2-yl)-6-(1-methyl-4-(4-methyl-4H-1,2,4-triazol-3-yl)-1H-pyrazol-5-yl)isoindolin-1-one] belongs 0.3 to 5 µM; to `Cn1cnnc1CC1(c2ccc3c(c2)C(=O)N(c2cc(CNCC4(C(F)(F)F)CC4)cc(Cl)n2)C3)COC1` [Compound 204], 0.08 to 0.3 µM.
To `Cc1cc(CNCC2CC2)cc(N2Cc3ccc(-c4ccc(Cl)cc4-c4nnc5ccccn45)cc3C2=O)n1` [Compound 268] belongs 0.3 to 5 µM; to `CCNCCc1cc(N2Cc3ccc(C4(Cc5nncn5C)COC4)cc3C2=O)cc(C(F)(F)F)c1` [Compound 75, 2-(3-(2-(Ethylamino)ethyl)-5-(trifluoromethyl)phenyl)-6-(3-((4-methyl-4H-1,2,4-triazol-3-yl)methyl)oxetan-3-yl)isoindolin-1-one], 0.3 to 5 µM.
Consider `CC1CCC(C)N(Cc2cc(N3Cc4ccc(C5(Cc6nncn6C)COC5)cc4C3=O)nc(C(F)(F)F)c2)C1` (single isomer, unassigned) [Compound 141], for which the half-inhibitory concentration (IC50) was under 0.08 µM.
As to `C[C@@H]1CN(Cc2cc(Cl)nc(N3Cc4ccc(C5(Cc6nncn6C)COC5)cc4C3=O)c2)C[C@@H](C)O1` [Compound 177], the IC50 is 0.3 to 5 µM.
In the case of `Cc1ccc(CNCc2cc(Cl)nc(N3Cc4ccc(C5(Cc6nncn6C)COC5)cc4C3=O)c2)o1` [Compound 226], the half-inhibitory concentration (IC50) was 0.08 to 0.3 µM.
The figure for `C[C@H]1CCCN(Cc2cc(Cl)nc(N3Cc4ccc([C@@H](Cc5nncn5C)C(F)(F)F)cc4C3=O)c2)C1` (single isomer, unassigned) [Compound 180] is 0.08 to 0.3 µM; for `C[C@H]1CCCN(Cc2cc(Cl)nc(N3Cc4ccc(C(Cc5nncn5C)C5CCC5)cc4C3=O)c2)C1` (some centres unmarked) [Compound 173] it is 0.3 to 5 µM.
The figure for `CCN1CCC[C@@H]1CNCc1cc(C)nc(N2Cc3ccc(-c4ccc(F)cc4-c4nncn4C)cc3C2=O)c1` [Compound 317] is 0.3 to 5 µM; for `C[C@H]1CCCN(Cc2cc(Cl)nc(N3Cc4ccc(CCc5nncn5C)cc4C3=O)c2)C1` [Compound 154] it is 0.08 to 0.3 µM; for `C[C@@H]1CN(Cc2cc(Cl)nc(N3Cc4ccc(C5(Cc6nncn6C)COC5)cc4C3=O)c2)C[C@H](C)O1` [Compound 191] it is 0.3 to 5 µM.
As for `CN1CCC/C(=C/c2cc(Cl)nc(N3Cc4ccc(C5(Cc6nncn6C)COC5)cc4C3=O)c2)C1` [Compound 335, (Z)-2-(6-Chloro-4-((1-methylpiperidin-3-ylidene)methyl)pyridin-2-yl)-6-(3-((4-methyl-4H-1,2,4-triazol-3-yl)methyl)oxetan-3-yl)isoindolin-1-one], the IC50 fell in the range of 0.08 to 0.3 µM.
The figure for `Cc1cc(CNCC2CC2)cc(N2Cc3ccc(-c4ccc(F)c(F)c4-c4nncn4C)cc3C2=O)n1` [Compound 257] is 0.3 to 5 µM.
With `C[C@@H](NCc1ccccn1)c1cc(Cl)nc(N2Cc3ccc(C4(Cc5nncn5C)COC4)cc3C2=O)c1` (single isomer, unassigned) [Compound 241], the IC50 was 0.3 to 5 µM.
As for `COCCN(Cc1cc(C)nc(N2Cc3ccc(-c4ccc(F)cc4-c4nncn4C)cc3C2=O)c1)CC1CC1` [Compound 313], the IC50 lay in the range of 0.3 to 5 µM.
With `CC1CCC(C)N(Cc2cc(N3Cc4ccc(C5(Cc6nncn6C)COC5)cc4C3=O)nc(C(F)(F)F)c2)C1` (single isomer, unassigned) [Compound 139], the 50% inhibitory concentration (IC50) lay within 0.3 to 5 µM.
